# Laboratory results published in US20230098569A1, “METHODS OF CONTROLLING OR PREVENTING INFESTATION OF PLANTS BY THE PHYTOPATHOGENIC MICROORGANISM CORYNESPORA CASSIICOLA” (SYNGENTA CROP PROTECTION AG, priority 2020, published 2023).
# Test system: Corynespora cassiicola
# Assay: Corynespora cassiicola liquid culture growth inhibition (PDB, 96-well microtiter plate, photometric at 620 nm)
# Format: cell-based
# Conditions: 24 C, 3-4 days, compared to untreated control
# Procedure: Conidia of the fungus from cryogenic storage were directly mixed into nutrient broth (PDB potato dextrose broth). A DMSO solution of the test compounds was placed into a microtiter plate (96-well format) and the nutrient broth containing the fungal spores was added to it. The test plates were incubated at 24 C and the inhibition of growth (% control of Corynespora cassiicola) was determined photometrically after 3-4 days at 620 nm. The activity of a compound is derived by comparing the inhibition of growth in the treated test solution to the growth in the untreated check. The concentration of the compounds was 6.7, 2.2, 0.74, 0.25, 0.082 and 0.027 ppm.
row,SMILES,inhibition at 6.7 ppm [%]
1,CC1(C)N=C(n2cnc3c4c(ccc32)CCC4)c2ccccc2C1(F)F [Compound 6],≥ 70
2,Cc1cccc2c1ncn2C1=NC(C)(C)C(F)(F)c2ccccc21 [Compound 1],≥ 70
3,Cc1c(F)ccc2c1ncn2C1=NC(C)(C)C(F)(F)c2ccccc21 [Compound 3],≥ 70
4,Cc1cccc2c1ncn2C1=NC(C)(C)C(F)(F)c2cc(Cl)ccc21 [Compound 5],≥ 70
5,Cc1ccc2c(ncn2C2=NC(C)(C)C(F)(F)c3c(F)cccc32)c1C [Compound 4],≥ 70
6,Cc1ccc2c(ncn2C2=NC(C)(C)C(F)(F)c3ccccc32)c1C [Compound 2],≥ 70
